Like-named read-outs stand apart in the source and are kept apart here.
What was measured:
Assay in all cases: Growth inhibition GI50 in vitro (CCK8/MTT, 72 h)
[1] = test system: H292 (EGFR WT); format: cell-based; conditions: Homo sapiens, NCI-H292
[2] = test system: A431 (EGFR WT, amplification and high expression); format: cell-based, human; conditions: Homo sapiens, A-431
[3] = test system: HCC827 (EGFR dE746-A750); format: cell-based, human; conditions: Homo sapiens
[4] = test system: H1975 (EGFR L858R/T790M); format: cell-based, human; conditions: Homo sapiens, NCI-H1975
[5] = test system: PC-9ER (EGFR delE746-A750/T790M); format: cell-based, human; conditions: Homo sapiens, PC-9/ER; EGFR mutant cell line; range of GI50; read-out: GI50 PC9ER
[6] = test system: PC-9 (EGFR dE746-A750); format: cell-based, human; conditions: Homo sapiens
[7] = test system: AU565 (Her2 amp); format: cell-based, human; conditions: Homo sapiens
[8] = test system: SK-BR-3 (Her2 amp); format: cell-based, human; conditions: Homo sapiens
[9] = test system: N87 (HER2 Amp); format: cell-based, human; conditions: Homo sapiens
[10] = test system: Calu-3 (Her2 amp); format: cell-based; conditions: Homo sapiens
Experimental: Human lung adenocarcinoma cell line Calu-3 (ATCC) was cultured with 1×MEM complete medium (10% FBS, 1% double-antibiotics, 1% NEAA (Gibco), 2 mM glutamine and 1 mM of sodium pyruvate). Human breast cancer cell line SK-BR-3 was cultured with McCOY'S5A complete medium (10% FBS). Human colon cancer cell line SNU1040 (HER2 V777M positive) (ATCC) and human bronchoalveolar adenocarcinoma cell line NCI-H1781 (expressing HER2 exon 20 G776VC mutation) (ATCC) were cultured with 1×RPMI1640 complete medium (10% FBS), respectively.
The suspension cells were collected by centrifugation. The supernatant was discard and the cell pellet was resuspended and counted. Different cell concentrations (5˜10×10^4 cells/mL) were prepared according to the growth cycle of each cell line and then seeded on a 96-well plate (Corning), 100 μL/well. The cells were incubated over night at 37° C., 5% CO2. The compounds were added to the cells on the second day with 2 wells in parallel. The final concentration of organic solvent shall not exceed 1%. The cells were continually incubated for 72 h, and then subjected to MTT assay.
The present compounds and the reference compounds were dissolved with DMSO (Sigma), respectively. […] The storage concentration of compounds was 10 mM and kept at −20° C. They were diluted by 2 times or 10 times with serial dilution before using.
Dojindo CCK8 reagent kit was used as MTT assay. […] FC meter was used as microplate reader.
Adherent cell culture medium was discard and immediately replaced with fresh prepared medium which contains 10% CCK8 reagent (100 μL/well). For the suspension cells, CCK8 was directly added to 10% of the final concentration. The cells were continually incubated for 1˜4 h. When the color of control wells turned to dark yellow, the absorption value was measured at OD450 nm. The cell growth rate was calculated according to the following formula: cell growth rate (%)=100*(T−T0)/(C−T0), T=optical density of drug treatment cell well—optical density of blank control well; T0=optical density of cell well before drug treatment—optical density of blank control well; C=optical density of cell well of solvent control group—optical density of blank control well. […] The experiment was independently repeated 1˜3 times, and subject to biological statistical analysis.

[11] = test system: A549 (EGFR WT); format: cell-based, human; conditions: Homo sapiens, A549
[12] = test system: H460 (EGFR wt, Kras G61H); format: cell-based, human; conditions: Homo sapiens, NCI-H460; EGFR wild type cell line; range of GI50; read-out: GI50 H460
[13] = test system: H1299 (EGFR wt, Nras Q61K); format: cell-based, human; conditions: Homo sapiens, NCI-H1299; EGFR wild type cell line; range of GI50; read-out: GI50 H1299
[14] = EGFR wild type cell line, range of GI50, read-out: GI50 A431
[15] = HCC827, EGFR mutant cell line, range of GI50, read-out: GI50 HCC827
[16] = EGFR mutant cell line, range of GI50, read-out: GI50 H1975
[17] = EGFR mutant cell line, range of GI50, read-out: GI50 PC-9
[18] = AU565, HER2 positive cell line, range of GI50, read-out: GI50 AU-565
[19] = SK-BR-3, HER2 positive cell line, range of GI50, read-out: GI50 SK-BR-3
[20] = HER2 positive cell line, range of GI50, read-out: GI50 N87
[21] = Table 15, 1000 nM to 0.03 nM serial dilution, read-out: GI50 H292 (EGFR WT)
[22] = Table 13, 72 h, read-out: Range of GI50 A549 (EGFR WT)
[23] = Table 15, 1000 nM to 0.03 nM serial dilution, read-out: GI50 A549 (EGFR WT)
[24] = Table 13, 72 h, read-out: Range of GI50 H1975 (EGFR L858R/T790M)
[25] = Table 15, 1000 nM to 0.03 nM serial dilution, read-out: GI50 H1975 (EGFR L858R/T790M)
[26] = Table 13, 72 h, read-out: Range of GI50 PC-9 (EGFR dE746-A750)
[27] = Table 15, 1000 nM to 0.03 nM serial dilution, read-out: GI50 PC-9 (EGFR dE746-A750)
[28] = Table 13, 72 h, read-out: Range of GI50 N87 (HER2 Amp)
[29] = Table 16, 1000 nM to 0.03 nM serial dilution, read-out: GI50 N87 (HER2 amp)
[30] = Calu-3, Table 16, 1000 nM to 0.03 nM serial dilution, read-out: GI50 Calu3 (HER2 amp)

GI50 [2, 14] [µM] | GI50 [3, 15] [µM] | GI50 [4, 16] [µM] | GI50 [5] [µM] | GI50 [6, 17] [µM] | GI50 [8, 19] [µM] | GI50 [1, 21] [µM] | GI50 [11, 22] [µM] | GI50 [11, 23] [µM] | GI50 [4, 24] [µM] | GI50 [4, 25] [µM] | GI50 [6, 26] [µM] | GI50 [6, 27] [µM] | GI50 [10, 30] [µM] | SMILES | GI50 [7, 18] [µM] | GI50 [9, 20] [µM] | GI50 [9, 28] [µM] | GI50 [9, 29] [µM] | also measured
0.1 to 1 | < 0.01 | < 0.01 | < 0.01 | < 0.01 | 0.01 to 0.1 |  |  |  |  |  |  |  |  | C=CC(=O)Nc1cc(Nc2ncnc(Nc3cccc(Br)c3)n2)c(OC)cc1N1CCC(N2CCCC2)CC1 [Compound 118] | < 0.01 | < 0.01 |  |  | GI50 ([1]; H292, EGFR wt, read-out: GI50): > 1 µM; GI50 ([2]; A431, EGFR wt, read-out: GI50): 0.156 µM; GI50 ([3]; HCC827, EGFR dE746-A750, read-out: GI50): 0.0023 µM; GI50 ([4]; H1975, EGFR L858R/T790M, read-out: GI50): 0.0094 µM; GI50 ([6]; PC-9, EGFR dE746-A750, read-out: GI50): 0.00238 µM; GI50 ([7]; AU565, EGFR wt, Her2 amp, read-out: GI50): 0.0048 µM; GI50 ([8]; SK-BR-3, EGFR wt, Her2 amp, read-out: GI50): 0.0292 µM; GI50 ([9]; N87, EGFR wt, Her2 amp, read-out: GI50): 0.0048 µM; GI50 ([10]; Calu-3, EGFR wt, Her2 amp, read-out: GI50): 0.0146 µM
0.1 to 1 | < 0.01 | < 0.01 | < 0.01 | < 0.01 | < 0.01 |  |  |  |  |  |  |  |  | C=CC(=O)Nc1cc(Nc2cc(-c3cn(C(C)C)c4ccc(F)cc34)ncn2)c(OC)cc1N(C)CCN(C)C [Compound 191, N-(5-(6-(5-fluoro-1-isopropyl-1H-indol-3-yl)-pyrimidin-4-ylamino)-4-methoxyl-2-((2-dimethylamino-ethyl)-methyl-amino)-phenyl)-acrylamide] | 0.01 to 0.1 | < 0.01 |  |  | GI50 ([11]; EGFR wild type cell line, range of GI50, read-out: GI50 A549): > 1 µM; GI50 [12]: > 1 µM; GI50 [13]: > 1 µM
 |  |  |  |  |  | > 1 | > 1 | > 1 | < 0.01 | 0.0049 | < 0.01 | 0.00781 | 0.00788 | C=CC(=O)Nc1cc(Nc2nccc(-n3ccc4c(OCCOC)cccc43)n2)c(OC)cc1N(C)CCN(C)C [Compound 205, N-(5-(4-(4-(2-methoxyl-ethoxyl)-1H-indol-1-yl)-pyrimidin-2-ylamino)-2-(2-(dimethylamino-ethyl)-methyl-amino)-4-methoxyl-phenyl)-acrylamide] |  |  | < 0.01 | 0.00561 | 
 |  |  |  |  |  | > 1 | > 1 | > 1 | < 0.01 | 0.00896 | < 0.01 | 0.00987 |  | C=CC(=O)Nc1cc(Nc2cc(Nc3ccc(OCC4CCOCC4)c(Cl)c3)ncn2)c(OC)cc1N(C)CCN(C)C [Compound 216, N-(5-(6-(3-chloro-4-(tetrahydropyran-4-yl-methoxyl)-phenylamino)-pyrimidin-4-ylamino)-2-((2-dimethylaminoethyl)-methyl-amino)-4-methoxyphenyl)-acrylamide] |  |  | < 0.01 | 0.0195 | 
 |  |  |  |  |  | > 1 | > 1 | > 1 | < 0.01 | 0.00388 | < 0.01 | 0.00149 | 0.00146 | C=CC(=O)Nc1cc(Nc2cc(Nc3cc(F)c(OC)c(Cl)c3)ncn2)c(OC)cc1N(C)CCN(C)C [Compound 236, N-(5-(6-(3-chloro-5-fluoro-4-methoxyphenylamino)-pyrimidin-4-yl-amino)-2-((2-dimethylamino-ethyl)-methyl-amino)-4-methoxyl-phenyl)-acrylamide] |  |  | < 0.01 | 0.00082 | 
